Data published in publication PMC3458020, “High-Throughput Screening for Novel Inhibitors of Neisseria gonorrhoeae Penicillin-Binding Protein 2” (PLoS ONE, 2012).
Read-outs that look alike come from different tables or passages of the source.

Tests used:
N. gonorrhoeae PBP 2 [1] = biological target: T1, N. gonorrhoeae PBP 2 (Neisseria gonorrhoeae, UniProt P08149); assay: FP high-throughput screening assay (Bocillin-FL binding to PBP 2); design: Inhibition (%) of Bocillin-FL binding to PBP 2: concentration or dose not given beside the values; conditions: four replicates; for Compound (mP) (mean ± SD): FP signal of individual compound with PBP 2 and Bocillin-FL; for Inhibition (%) of Bocillin-FL binding to PBP 2: individual compounds
T1 construct: A soluble construct of wild-type PBP 2; made in house
T1 sequence (P08149 44-581 limits assumed): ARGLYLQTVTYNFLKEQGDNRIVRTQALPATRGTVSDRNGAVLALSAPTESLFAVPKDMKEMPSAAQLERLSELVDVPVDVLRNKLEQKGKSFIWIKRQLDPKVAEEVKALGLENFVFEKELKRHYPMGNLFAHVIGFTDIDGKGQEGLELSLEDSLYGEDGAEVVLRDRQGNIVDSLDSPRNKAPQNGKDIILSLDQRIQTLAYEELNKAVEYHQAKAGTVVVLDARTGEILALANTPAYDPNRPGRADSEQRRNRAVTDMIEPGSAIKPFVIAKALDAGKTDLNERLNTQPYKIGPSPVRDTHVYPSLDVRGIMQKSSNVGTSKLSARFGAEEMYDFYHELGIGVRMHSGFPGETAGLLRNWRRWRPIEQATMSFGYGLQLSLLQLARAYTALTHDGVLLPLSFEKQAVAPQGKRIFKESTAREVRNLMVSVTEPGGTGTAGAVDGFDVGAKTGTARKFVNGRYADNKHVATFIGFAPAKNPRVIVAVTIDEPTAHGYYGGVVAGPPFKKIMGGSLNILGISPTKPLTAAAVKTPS
Procedure: (§1) A soluble construct of wild-type PBP 2 from the penicillin-susceptible strain of N. gonorrhoeae FA19 was expressed and purified as described previously. Bocillin FL™ was obtained from Invitrogen Inc. (Carlsbad, CA). Penicillin G and γ-Globulins from bovine blood (BGG) were purchased from Sigma (St. Louis, MO). Prior to use, all reagents were diluted in an assay buffer comprising 50 mM potassium phosphate, pH 8, and 0.1 mg/ml BGG. The DIVERSet library of 50,080 small lead compounds from ChemBridge Corporation (San Diego, CA) was provided by the MUSC Drug Discovery Core (DDC). Three laboratory strains of N. gonorrhoeae–FA19 [28], penicillin-resistant FA6140 [29], and cephalosporin-intermediate resistant Ceph^I strain 35/02 [30]–were from the laboratory collection of R. Nicholas (UNC-Chapel Hill).
(§2) Measurements of fluorescence and FP were performed on a Spectramax M5 microplate reader (Molecular Devices, Sunnyvale, CA) with excitation and emission wavelengths of 485 nm and 520 nm, respectively, using a 515 nm filter to block residual excitation light and to minimize background interference. Black, shallow 384-well micro plates (ProxiPlate ™ –384 F Plus, PerkinElmer) were used to record data. To minimize the polarization effects from any fluorophore bound to the surface of the well, both excitation and emission data were recorded from the top of the well. Reading time was 100 ms per well. Fluorescence polarization was quantified in millipolarization units (mP) according to the equation, mP = 1000×[(Iv − G.Ih)/(Iv + G.Ih)], where Iv and Ih are parallel and perpendicular emission intensity measurements, respectively, corrected for background (buffer), and G is the instrument-dependent correction coefficient, defined as a ratio of sensitivities of the detection system for vertically and horizontally polarized light. Using the equation G = Iv/Ih and SoftMax® Pro Data Acquisition & Analysis Software (Molecular Devices, Sunnyvale, CA), the G-factor was determined with dilution series of Bocillin-FL-only (free tracer). The assay window (ΔmP) was defined as the difference between protein-tracer sample and free-tracer, i.e. ΔmP = mPs – mPfree, and is a measure of the maximum specific binding.
HTS screening against the ChemBridge DIVERSet library was carried out under the following conditions: 1 µl of each compound (10% DMSO final) in duplicate was pre-incubated with 9 µl of PBP 2 for 1 h at room temperature, followed by additional 30 min incubation with 2 µl Bocillin-FL (0.87 µM PBP2∶ 1 µM Bocillin-FL final). In addition to samples with the compounds, each plate also contained 2 background wells (12 µl buffer only), and at least 4 wells each for Pc, Nc, and Dc reactions. All samples used for background measurements or controls included 10% DMSO. Initial screening was carried out with 10 mM cocktails of 10 compounds (giving a final concentration of 100 µM for each compound). […] The auto fluorescence of each compound was also tested individually.

N. gonorrhoeae FA19 = assay: MIC on GCB agar plates, strain FA19; assay type: cell-based; conditions: Neisseria gonorrhoeae
Procedure: (§3) Three strains of N. gonorrhoeae were used in susceptibility tests: 1) FA19, a penicillin-and cephalosporin-susceptible strain; 2) FA6140, a penicillin-resistant but cephalosporin-susceptible strain; and 3) 35/02, a penicillin-resistant and cephalosporin intermediate-resistant strain. The disc diffusion zone method was applied for preliminary testing of “hits” identified in the screening process. For this method, 100 µl of a cell suspension (∼1×10^7 bacteria) was added to 3 ml of GCB top agar (GC Broth containing 0.75% agar) at 50 °C, which was then added to GCB plates and allowed to solidify. Five µl of each compound (5 µg) was added separately to antibiotic susceptibility discs (BBL™, BD, Franklin Lakes, NJ), the discs were placed on top of plates, and the plates were incubated overnight in a 4% CO2 incubator at 37 °C. Those compounds that produced a visible zone of inhibition were then tested for their MICs on agar plates as described. Briefly, GCB agar plates containing increasing amounts of the tested compounds were spotted with 5×10^4 cells. The lowest concentration of the test compound that prevented growth of <5 colonies was defined as the MIC. These experiments were repeated three times, with each experiment producing similar results.

N. gonorrhoeae 35/02 = assay: MIC on GCB agar plates, strain 35/02; assay type: cell-based; conditions: Neisseria gonorrhoeae
Procedure: as §3

N. gonorrhoeae PBP 2 [2] = biological target: T1, N. gonorrhoeae PBP 2; assay: SDS-PAGE-based concentration-response assay with Bocillin-FL (0.01% Triton X-100); assay type: binding
Procedure: as §1
For the FP experiments, 0.01–200 µM of each potential hit was incubated with PBP 2 (1 µM) for 1 h, followed by an additional 30 min incubation with 1 µM Bocillin-FL to detect the residual activity of the labeled penicillin binding. For the SDS-PAGE-based concentration-response experiments, PBP 2 (1 µM) in 50 mM sodium phosphate, 0.01% Triton X-100, pH 8 was incubated with 0.05–1000 µM of a compound for 1 h, followed by additional 15 min incubation with 10 µM Bocillin-FL. The reaction was stopped by mixing each sample with 5 X SDS-loading buffer, followed by boiling for 2 min. The samples were submitted to electrophoresis on 10% Mini-Protean TGX™ SDS-PAGE gels (Bio-Rad, Hercules, CA) to separate bound PBP 2 from free ligand. At least two independent reactions were performed in duplicate at each concentration of an inhibitor. Gels were visualized by UV using a Kodak EDAS 290 imaging system (Scientific Imaging Systems Eastman Kodak, New Haven, CT, USA) and the protein bands were stained with Coomassie to verify equal loading. Densitometry was performed with ImageJ 1.37v program (National Institutes of Health, USA, http://rsb.info.nih.gov/ij/). In both methods, data points were normalized to the maximum value of the fluorescence intensity, which defines complete saturation of PBP 2 by Bocillin-FL in the absence of compound, and IC50 values of the inhibitors were defined as the concentration of a compound at 50% of the residual activity of Bocillin-FL and calculated using GraphPad Prism (see above).

N. gonorrhoeae PBP 2 [3] = biological target: T1, N. gonorrhoeae PBP 2; assay: FP-based concentration-response competition assay with Bocillin-FL; assay type: binding; conditions: 1 µM PBP 2, 1 µM Bocillin-FL
Procedure: as §1, §2
To evaluate the performance of the assay, steady-state concentration-response experiments were carried out using penicillin G in a competition assay with Bocillin-FL. Penicillin G (0.05–1000 µM) was mixed with 1 µM PBP 2 and 1 µM Bocillin-FL, followed by a 1 hr incubation. The positive (Pc) and negative (Nc) controls were defined as the FP of the Bocillin-FL - protein and of the free tracer, respectively, in the absence of penicillin G. The FP of the Bocillin-FL - protein at 100 µM penicillin G was defined as a displaced tracer control (Dc). Since DMSO was used as a solvent in the compound library, the effect of 10% DMSO on the FP-binding assay was also determined. Data points were normalized to the maximum specific binding, which defines complete saturation of PBP 2 by Bocillin-FL in the absence of penicillin G, and IC50 values were determined using non-linear regression analysis using GraphPad Prism version 4.00 for Windows (GraphPad Software, Inc, San Diego, CA).
For the FP experiments, 0.01–200 µM of each potential hit was incubated with PBP 2 (1 µM) for 1 h, followed by an additional 30 min incubation with 1 µM Bocillin-FL to detect the residual activity of the labeled penicillin binding. For the SDS-PAGE-based concentration-response experiments, PBP 2 (1 µM) in 50 mM sodium phosphate, 0.01% Triton X-100, pH 8 was incubated with 0.05–1000 µM of a compound for 1 h, followed by additional 15 min incubation with 10 µM Bocillin-FL. The reaction was stopped by mixing each sample with 5 X SDS-loading buffer, followed by boiling for 2 min. The samples were submitted to electrophoresis on 10% Mini-Protean TGX™ SDS-PAGE gels (Bio-Rad, Hercules, CA) to separate bound PBP 2 from free ligand. […]

N. gonorrhoeae FA6140 = assay: MIC on GCB agar plates, strain FA6140; assay type: cell-based; conditions: Neisseria gonorrhoeae
Procedure: as §3

PBP 2 = biological target: T2, PBP 2 (Neisseria gonorrhoeae, UniProt P08149); assay: Mass spectrometry test for covalent interaction with PBP 2; conditions: data not shown
T2 construct: A soluble construct of wild-type PBP 2; made in house
T2 sequence (P08149 44-581 limits assumed): as above

[4] = penicillin- and cephalosporin-susceptible strain FA19, read-out: MIC FA19
[5] = penicillin-resistant, cephalosporin intermediate-resistant strain 35/02, read-out: MIC 35/02
[6] = IC50, SDS-PAGE assay, 1 µM PBP 2, 10 µM Bocillin-FL, 0.01% Triton X-100
[7] = IC50 measured by SDS-PAGE, 0.01% Triton X-100, 1 µM PBP 2, 10 µM Bocillin-FL, two independent experiments
[8] = IC50 measured by FP, 0.01–200 µM compound, four replicates
[9] = penicillin-resistant, cephalosporin-susceptible strain FA6140, read-out: MIC FA6140

| SMILES | Compound (mP) (mean ± SD) (N. gonorrhoeae PBP 2 [1]) | Inhibition (%) of Bocillin-FL binding to PBP 2 (N. gonorrhoeae PBP 2 [1]) | MIC (N. gonorrhoeae FA19; [4]) | MIC (N. gonorrhoeae 35/02; [5]) | IC50 (N. gonorrhoeae PBP 2 [2]; [6]) | IC50 (N. gonorrhoeae PBP 2 [2]; [7]) | IC50 (N. gonorrhoeae PBP 2 [3]; [8]) | MIC (N. gonorrhoeae FA6140; [9]) | MIC (N. gonorrhoeae FA19; FA19, read-out: MIC FA19) | MIC (N. gonorrhoeae 35/02; 35/02, read-out: MIC 35/02) | MIC (N. gonorrhoeae FA6140; FA6140, read-out: MIC FA6140) | Covalent interaction with PBP 2 (mass of the protein) (PBP 2) | MIC (N. gonorrhoeae FA19; strain FA19, MIC given in µM, read-out: MIC FA19) | MIC (N. gonorrhoeae 35/02; strain 35/02, MIC given in µM, read-out: MIC 35/02) | IC50 (N. gonorrhoeae PBP 2 [2]; IC50, SDS-PAGE assay, same IC50 given in µg/ml) | MIC (N. gonorrhoeae FA6140; strain FA6140, MIC given in µM, read-out: MIC FA6140) | IC50 (N. gonorrhoeae PBP 2 [3]; IC50 of penicillin G for PBP 2 (FP-based competition assay), with 10% DMSO) | IC50 (N. gonorrhoeae PBP 2 [3]; IC50 of penicillin G for PBP 2 (FP-based competition assay), without DMSO) |
| --- | --- | --- | --- | --- | --- | --- | --- | --- | --- | --- | --- | --- | --- | --- | --- | --- | --- | --- |
| CCc1ccc(O)c(/N=C/c2cc(I)cc(I)c2O)c1 [Compound 1] | 31.4±0.1 mP | 108.2% | 4 µg/mL | 16 µg/mL | 221 µM | 221 µM | 114 µM | 16 µg/mL |  |  |  |  |  |  |  |  |  |  |
| O=Cc1cc(Cc2ccccc2)cc([N+](=O)[O-])c1O [Compound 2] | 60.4±20.3 mP | 85.8% | 4 µg/mL | 8 µg/mL | 128 µM | 128 µM | 330 µM | 16 µg/mL |  |  |  |  |  |  |  |  |  |  |
| Sc1nnc(-c2ccc(Cl)cc2Cl)n1/N=C/C=C/c1ccco1 [Compound 3] | 65.7±12.4 mP | 81.8% | 16 µg/mL | 32 µg/mL | 898 µM |  | 129 µM | 32 µg/mL |  |  |  |  |  |  |  |  |  |  |
| O=S(=O)(Nc1ccc(O)c2ccccc12)c1cccc2ccccc12 [Compound 4] | 35.6±2.1 mP | 105.4% | 16 µg/mL | 16 µg/mL | 50 µM | 50.2 µM | 51.4 µM | 16 µg/mL |  |  |  |  |  |  |  |  |  |  |
| CCc1ccc(S(=O)(=O)Nc2ccc(O)c3ccccc23)cc1 [Compound 5] | 43.3±0.8 mP | 97.6% | 8 µg/mL | 16 µg/mL | 56 µM | 56.3 µM | 52.1 µM | 16 µg/mL |  |  |  |  |  |  |  |  |  |  |
| O=c1sc2ccccc2c(O)c1C(c1ccccc1)c1c(O)c2ccccc2sc1=O [Compound 6] | 54.6±3.2 mP | 89.5% |  |  | 49 µM | 49.3 µM | 50.9 µM |  | 4 µg/mL | 8 µg/mL | 8 µg/mL |  |  |  |  |  |  |  |
| CN1C(=O)/C(=C2\SC(=S)NC2=O)c2cc(Br)ccc21 [Compound 7] | 45.2±20.2 mP | 96.6% | 2 µg/mL | 8 µg/mL | 153 µM | 153 µM | 11.3 µM | 8 µg/mL |  |  |  | no increase in mass of the protein was observed | 5.6 µM | 23.4 µM | 152 µM | 23.4 µM |  |  |
| CC1(C)S[C@@H]2[C@H](NC(=O)Cc3ccccc3)C(=O)N2[C@H]1C(=O)O [Penicillin G, reference compound] |  |  |  |  |  |  |  |  |  |  |  |  |  |  |  |  | 1 µM | 1.4 µM |
